≈ marks a conversion by molar mass, not a printed value.
What was measured:
Assay type in all cases: functional
Bacteroides fragilis = assay: In vitro antibacterial activity against Bacteroides fragilis 2017.
Clostridium perfringens = assay: In vitro antibacterial activity against Clostridium perfringens 615.
Escherichia coli [1] = assay: In vitro antibacterial activity against Escherichia coli 1850 WT.
Escherichia coli [2] = assay: In vitro antibacterial activity against Escherichia coli 1919 PM.
Pseudomonas aeruginosa [3] = assay: In vitro antibacterial activity against Pseudomonas aeruginosa 2032 WT.
Pseudomonas aeruginosa [4] = assay: In vitro antibacterial activity against Pseudomonas aeruginosa P. aeruginosa 1911.
Streptococcus pneumoniae = assay: In vitro antibacterial activity against Streptococcus pneumoniae 3512.
Staphylococcus aureus = assay: In vitro antibacterial activity against Staphylococcus aureus 853.

SMILES	MIC (Bacteroides fragilis) [µg/mL]	MIC (Clostridium perfringens) [µg/mL]	MIC (Escherichia coli [1]) [µg/mL]	MIC (Escherichia coli [2]) [µg/mL]	MIC (Pseudomonas aeruginosa [3]) [µg/mL]	MIC (Pseudomonas aeruginosa [4]) [µg/mL]	MIC (Streptococcus pneumoniae) [µg/mL]	MIC (Staphylococcus aureus) [µg/mL]
C[C@@H](O)[C@H]1C(=O)N2C(C(=O)[O-])=C3[C@H](CCC[C@@H]3N(C)C(=O)NCCO)[C@H]12.[Na+]	0.25	< 0.12	0.5	< 0.12	8	16	< 0.12	0.25
C[C@@H](O)[C@H]1C(=O)N2C(C(=O)[O-])=C3[C@H](CCC[C@@H]3N(C)C(=O)NC(C)(C)C)[C@H]12.[Na+]	0.5	< 0.12	4	0.5	2	16	< 0.12	0.5
CCNC(=O)N(C)[C@H]1CCC[C@H]2C1=C(C(=O)[O-])N1C(=O)[C@H]([C@@H](C)O)[C@@H]21.[Na+]	0.5	< 0.12	2	0.25	4	16	< 0.12	0.25
C[C@@H](O)[C@H]1C(=O)N2C(C(=O)[O-])=C3[C@H](CCC[C@@H]3N(C)C(N)=O)[C@H]12.[Na+]	< 0.12	< 0.12	0.25	< 0.12	1	8	< 0.12	< 0.12
C[C@@H](O)[C@H]1C(=O)N2C(C(=O)O)=C(SCCNC=N)C[C@H]12 [IMIPENEM ANHYDROUS]	0.06 (≈ 0.2 µM)	0.03 (≈ 0.1 µM)	0.5 (≈ 1.67 µM)	0.5 (≈ 1.67 µM)	4 (≈ 13.4 µM)	4 (≈ 13.4 µM)	< 0.01	0.1 (≈ 0.334 µM)
CO[C@H]1CCC[C@H]2C1=C(C(=O)[O-])N1C(=O)[C@H]([C@@H](C)O)[C@@H]21.[Na+] [SANFETRINEM SODIUM]	0.06	0.03	0.5	0.5	16	> 32	< 0.01	0.25

Reference: ChEMBL document CHEMBL1128935, “Synthesis and antibacterial, activity of 4-ureido trinems” (1996)
